The values below come from US20240050601A1, “COMPOSITIONS AND ASSOCIATED METHODS FOR SUSTAINED-RELEASE OF RADIOACTIVE AGENTS AND THEIR APPLICATIONS” (priority 2020, published 2024).

Each structure is given as a SMILES string.

The nature of one data set: in vivo. The note with it: Balb/C, mouse.
Data set [1] relates to myeloproliferative neoplasms (MPNs). As to conditions: low dose range (5-7 mCi per intravenous injection, total up to 4 injections); cited from earlier work.

Experimental for in vivo: The hydrogel was prepared, kept in a 4° C. refrigerator overnight ensuring a complete mixing, and balanced to ambient temperature prior to the administration. The molecular weight of ICG is 775 Da, which was used here as an example of small molecule. Two animal groups with different route of subcutaneous (s.c.) or intramuscular (i.m.) injection was assessed with an injection volume of 500 μl or 50 μl, respectively. The imaging was conducted for the animals immediately after hydrogel administration (within 1 minute), and then at predetermined time points of post injection.

As a reminder, the half-life is how long it takes for the measured level to halve. The low end stands for rapid decline, the high end for slow decline. Consider `CC1(C)C(/C=C/C=C/C=C/C=C2\N(CCCCS(=O)(=O)O)c3ccc4ccccc4c3C2(C)C)=[N+](CCCCS(=O)(=O)[O-])c2ccc3ccccc3c21` [TCG, indocyanine green], for which the half-life in the data set “in vivo” (im, 50 μl) was about 4 h; in the data set “in vivo” (sc, 500 μl), about 24 h. Take `O=[32P](O)(O)O` [phosphate P-32]: the “tolerability and efficacy in MPNs” value in data set [1] was “well-tolerated and efficacious”.
